{"source": "paper PMC7734590", "about": "“Identification of a Selective RelA Inhibitor Based on DSE-FRET Screening Methods” (International Journal of Molecular Sciences, 2020)", "key": {"[1]": {"system": "T1, NF-κB–DNA complexes in PK8 nuclear extract", "T1 construct": "nuclear extracts from tumor necrosis factor (TNF)-α-treated PK8 cells; endogenous in cells; host or cells: PK8 (human pancreatic carcinoma), TNF-α 50 ng/mL for 10 min, nuclear extract", "experiment": "EMSA with nuclear extracts from TNF-α-treated PK8 cells", "format": "biochemical, human", "details": "TNF-α 50 ng/mL 10 min", "method": "(§1) For EMSA using nuclear extract, PK8 cells were treated with TNF-α (50 ng/mL) for 10 min before nuclear protein extraction. The cells were washed with ice-cold phosphate-buffered saline (PBS), followed by buffer A (10 mM HEPES–NaOH, pH 7.9, 10 mM KCl, 1.5 mM MgCl2, 0.5 mM DTT, and 0.5 mM phenylmethanesulfonyl fluoride (PMSF)). After 15 min on ice, the cell suspension was centrifuged at 4 °C for 3 min at 2000 rpm, and the resultant cell pellets were resuspended in buffer A. Cells were homogenized using Dounse homogenizer type A (tight, 50 stroke) on ice. Homogenates were centrifuged at 4 °C for 10 min at 5000 rpm, and the resultant nuclear protein pellets were resuspended in buffer C (20 mM HEPES–NaOH pH 7.9, 600 mM KCl, 1.5 mM MgCl2, 25% glycerol, 0.2 mM EDTA, 0.5 mM DTT, and 0.5 mM PMSF). The nuclear proteins were incubated for 1 h on ice with intermittent tapping followed by 15 min of centrifugation at 18,000 rpm (4 °C). The supernatants were dialyzed using a Slide-A-Layzer Dialysis cassette 3500MW (Thermo: 66110) with buffer D (20 mM HEPES–NaOH pH 7.9, 100 mM KCl, 20% glycerol, 0.2 mM EDTA, 0.5 mM DTT, and 0.5 mM PMSF). The dialysis products were then aliquoted, snap-frozen, and stored at −80 °C."}, "[2]": {"system": "NF-κB–DNA complexes in PK8 nuclear extract", "experiment": "EMSA with nuclear extracts from TNF-α-treated PK8 cells", "format": "biochemical, human", "details": "500 µM A55", "method": "as §1"}}}
{"smiles": "Cc1cc(O)n(CC(=O)O)c(=O)c1C(N)=O", "note": "[A55, 2-(3-carbamoyl-6-hydroxy-4-methyl-2-oxopyridin-1(2H)-yl) acetic acid]", "values": [{"measurement": "EMSA band shift, RelA–DNA complex (upper band)", "setting": "[1]", "result": "Only the upper band disappeared"}, {"measurement": "EMSA band shift, other protein–DNA complexes (lower band)", "setting": "[2]", "result": "did not affect the lower band"}]}
